The results in this text go back to patent publication US7868026B2, “Therapeutic compounds” (Pfizer Inc., priority 2005, dated 2011).

Common to all, as to format: biochemical
For assay [1], the target named is T1, CYP3A4 (Homo sapiens, UniProt P08684). The assay can be described thus: Determination of IC50 against CYP3A4 by measurement of inhibition of midazolam metabolism (human liver microsomes, 1-hydroxymidazolam by LC-MS/MS). On the set-up: 0.1 mg/mL human liver microsomes. Conditions: 2 μM midazolam, 0.1 mg/mL human liver microsomes. In outline: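 Human liver microsomes (0.1 mg/mL) incubated 8 min with 2 μM midazolam and 1 mM NADPH in 100 mM potassium phosphate, pH 7.4. 1-Hydroxymidazolam quantified by LC-MS/MS (MRM) as peak area ratio to internal standard against a metabolite standard curve.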
T1 sequence (P08684 whole entry): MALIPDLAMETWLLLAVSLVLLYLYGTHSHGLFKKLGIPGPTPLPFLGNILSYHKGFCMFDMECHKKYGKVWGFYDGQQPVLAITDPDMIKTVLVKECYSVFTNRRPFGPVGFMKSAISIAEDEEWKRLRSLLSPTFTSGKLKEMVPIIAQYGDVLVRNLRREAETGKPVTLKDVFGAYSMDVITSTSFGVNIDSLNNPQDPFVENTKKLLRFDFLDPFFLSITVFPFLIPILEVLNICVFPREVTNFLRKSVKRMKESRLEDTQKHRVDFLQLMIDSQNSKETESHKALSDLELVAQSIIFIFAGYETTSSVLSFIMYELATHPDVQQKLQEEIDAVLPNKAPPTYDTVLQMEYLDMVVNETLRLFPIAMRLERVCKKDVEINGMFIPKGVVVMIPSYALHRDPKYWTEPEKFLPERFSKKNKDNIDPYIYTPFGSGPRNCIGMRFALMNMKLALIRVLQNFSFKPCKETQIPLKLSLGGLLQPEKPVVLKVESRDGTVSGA
Background: Microsomes from liver hold many membrane-bound enzymes, among them those of drug oxidation.

Assay [2] deals with T1, CYP3A4. Description: Determination of compound Kiapp against recombinant CYP3A4 enzyme (BFC fluorescent substrate). In a few lines:
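Kiapp derived from initial velocities over the first 5 min of BFC (5 uM) oxidation, using Morrison's tight-binding equation for non-partial and Szedlacsek's for partial inhibitors. Inhibitor first pre-incubated ≥30 min with CYP3A4 (5.5 or 8 nM, ±b5) in pH 7.0 phosphate/TCEP/2% DMF at room temperature; 200 uM NADPH initiated.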

For assay [3], the target named is T1, CYP3A4. The assay can be described thus: Determination of IC50 against CYP3A4 by measurement of inhibition of testosterone metabolism (human liver microsomes, 6-β-OH-testosterone by LC-MS/MS). On the set-up: 0.1 mg/mL human liver microsomes. Conditions: read-out: IC50 (Testo.). How it is done:
2. Determination of IC50 Against CYP3A4 by Measurement of Inhibition of Testosterone Metabolism
This assay was performed using a standard 96 well plate design. […] The incubation substrate mix contains 25 μM testosterone, 0.1 mg/mL human liver microsomes, 1 mM NADPH, and potassium phosphate buffer (100 mM, pH 7.4). Quantitation of metabolite peak area ratio against an internal standard is determined by LC-MS/MS analysis. The production of 6-β-OH-testosterone from testosterone metabolism is determined after incubation for eight minutes by comparison to a standard curve generated for the metabolite
Samples were analyzed in the MRM mode using a Sciex API 3000 mass spectrometer (Applied Biosystems, Foster City, Calif.) with a Paradigm MS4 binary pump (Michrom BioResources Inc., Auburn, Calif.) and a LEAP CTC PAL autosampler (LEAP Technologies, Carrboro, N.C.). A Phenomenex Synergi, 4μ, Polar-RP, 10×2.0 mm column (Phenomenex, Torrance, Calif.) was used for separation with a mobile phase composition of: 0.1% formic acid in water (A) and: 0.1% formic acid in methanol (B). The following gradient was used: […]
The sample injection volume was 10 μL and flow was split post-column with 0.4 mL/min going to the mass spectrometer. Analysis was performed using the following API 3000 mass spectrometer settings: […]

[4] abbreviates: Baculo. enzyme preparation, read-out: Kiapp (BFC, Baculo.).
Where [5] appears, read: Super. enzyme preparation, read-out: Kiapp (BFC, Super.).

Structures are written as SMILES. Like-named read-outs stand apart in the source and are kept apart here. A value given as a limit tells only on which side of the number the result lay.

Turning to `CC(C)(C)OC(=O)N1CCC2(CC1)CN(C(=O)c1ccccc1S(=O)(=O)Nc1cccnc1)C2` [Example 11, tert-butyl 2-{2-[(pyridin-3-ylamino)sulfonyl]benzoyl}-2,7-diazaspiro[3.5]nonane-7-carboxylate], the IC50 on CYP3A4 [1] and at CYP3A4 [3] was greater than 750 nM throughout. Also, the Ki is greater than 1000 nM at CYP3A4 [2] (setting [4]) and 563 nM on CYP3A4 [2] (setting [5]).
`O=C(NCc1ccccc1)c1ccccc1S(=O)(=O)Nc1cccnc1` [Example 12, N benzyl-2-[(pyridin-3-ylamino)sulfonyl]benzamide]: the values for the IC50 on CYP3A4 [1] and at CYP3A4 [3] were 31 nM and 29 nM, respectively. The Ki turned out to be 270 nM on CYP3A4 [2] (setting [4]) and 10.5 nM at CYP3A4 [2] (setting [5]).
As for `COc1cncc(NS(=O)(=O)c2ccccc2C(=O)N2CCCCC2)c1` [Example 16, N-(5-methoxypyridin-3-yl)-2-(piperidin-1-ylcarbonyl)benzenesulfonamide], the IC50 (as a rule, the point on the concentration scale where inhibition reaches its midpoint) at CYP3A4 [1] is 65 nM; on CYP3A4 [3], 117 nM. In addition, on CYP3A4 [2] (setting [4]), the Ki turned out to be 433 nM.
For `CCCCNC(=O)c1ccccc1S(=O)(=O)Nc1cncc(OC)c1` [Example 17, N-butyl-2-{[(5-methoxypyridin-3-yl)amino]sulfonyl}benzamide], the IC50 on CYP3A4 [1] turned out to be 26 nM; at CYP3A4 [3], 62 nM. In addition, at CYP3A4 [2] (setting [4]), the Ki is 133 nM.
The corresponding values for `COc1ccncc1NS(=O)(=O)c1ccccc1C(=O)N1CCCCC1` [Example 18, N-(4-methoxypyridin-3-yl)-2-(piperidin-1-ylcarbonyl)benzenesulfonamide] are 146 nM, 349 nM and 570 nM.
On to `CCCCNC(=O)c1ccccc1S(=O)(=O)Nc1cnccc1OC` [Example 19, N-butyl-2-{[(4-methoxypyridin-3-yl)amino]sulfonyl}benzamide], for which the IC50 at CYP3A4 [1] was 69 nM; at CYP3A4 [3] it was 169 nM. The Ki at CYP3A4 [2] (setting [4]) came to 329 nM.
Turning to `O=C(c1ccccc1S(=O)(=O)Nc1cccnc1)N1CCCC1` [Example 20, N-pyridin-3-yl-2-(pyrrolidin-1-ylcarbonyl)benzenesulfonamide], the IC50 on CYP3A4 [1] was 379 nM; at CYP3A4 [3], 445 nM. The Ki on CYP3A4 [2] (setting [4]) was greater than 1000 nM.
Consider `O=C(c1ccccc1S(=O)(=O)Nc1cccnc1)N1CCOCC1` [Example 21, 2-(morpholin-4-ylcarbonyl)-N-pyridin-3-ylbenzenesulfonamide], for which the IC50 at CYP3A4 [1] and on CYP3A4 [3] was greater than 750 nM throughout. Further, on CYP3A4 [2] (setting [4]), the Ki was greater than 1000 nM.
Take `N#Cc1cncc(NS(=O)(=O)c2ccccc2C(=O)N2CCCCC2)c1` [Example 22, N-(5-cyanopyridin-3-yl)-2-(piperidin-1-ylcarbonyl)benzenesulfonamide]: the IC50 at CYP3A4 [1] and on CYP3A4 [3] was greater than 750 nM each time. For the same molecule, on CYP3A4 [2] (setting [4]), the Ki is greater than 1000 nM.
Consider `O=C(NC1(CO)CCCC1)c1ccccc1S(=O)(=O)Nc1cccnc1` [Example 23, N-[1-(hydroxymethyl)cyclo-pentyl]-2-[(pyridin-3-ylamino)sulfonyl]benzamide], for which the results for the IC50 at CYP3A4 [1] and at CYP3A4 [3] were 103 nM and 325 nM, respectively. For the same molecule, the results for the Ki on CYP3A4 [2] (setting [4]) and at CYP3A4 [2] (setting [5]) were greater than 1000 nM and 280 nM, respectively.
Regarding `CCCCNC(=O)c1ccccc1S(=O)(=O)Nc1cncc(C#N)c1` [Example 24, N-butyl-2-{[(5-cyanopyridin-3-yl)amino]sulfonyl}benzamide], the IC50 at CYP3A4 [1] is 567 nM; on CYP3A4 [3], greater than 750 nM. In addition, the Ki at CYP3A4 [2] (setting [4]) was greater than 1000 nM.
On to `CC1CC(C)CN(C(=O)c2ccccc2S(=O)(=O)Nc2cccnc2)C1` (stereo not drawn) [Example 25, 2-[(3,5-dimethylpiperidin-1-yl)carbonyl]-N-pyridin-3-ylbenzenesulfonamide], for which the IC50 on CYP3A4 [1] turned out to be 45 nM; on CYP3A4 [3], 77 nM. Also, the Ki at CYP3A4 [2] (setting [4]) stood at 239 nM.
The like results for `COC1CCN(C(=O)c2ccccc2S(=O)(=O)Nc2cccnc2)CC1` [Example 26, 2-[(4-methoxypiperidin-1-yl)carbonyl]-N-pyridin-3-ylbenzenesulfonamide] were, in that order, 494 nM, 691 nM and greater than 1000 nM.
The like results for `C[C@@H]1CN(C(=O)c2ccccc2S(=O)(=O)Nc2cccnc2)C[C@H](C)O1` [Example 27, 2-{[(2R,6S)-2,6-dimethylmorpholin-4-yl]carbonyl}-N-pyridin-3-ylbenzenesulfonamide] were, in that order, 658 nM, greater than 750 nM and greater than 1000 nM.
The like results for `O=C(c1ccccc1S(=O)(=O)Nc1cccnc1)N1CCC(O)CC1` [Example 28, 2-[(4-hydroxypiperidin-1-yl)carbonyl]-N-pyridin-3-ylbenzenesulfonamide] were, in that order, greater than 750 nM, greater than 750 nM and greater than 1000 nM.
As for `CC1(C)CCCN(C(=O)c2ccccc2S(=O)(=O)Nc2cccnc2)C1` [Example 29, 2-[(3,3-dimethylpiperidin-1-yl)carbonyl]-N-pyridin-3-ylbenzenesulfonamide], the IC50 on CYP3A4 [1] turned out to be 76 nM; on CYP3A4 [3], 172 nM. Also, at CYP3A4 [2] (setting [4]), the Ki was determined as 324 nM.
The corresponding values for `Cc1cncc(NS(=O)(=O)c2ccccc2C(=O)N2CCCCC2)c1` [Example 30, N-(5-methylpyridin-3-yl)-2-(piperidin-1-ylcarbonyl)benzenesulfonamide] are 56 nM, 125 nM and 690 nM.
Regarding `CCCCNC(=O)c1ccccc1S(=O)(=O)Nc1cncc(C)c1` [Example 31, N-butyl-2-{[(5-methylpyridin-3-yl)amino]sulfonyl}benzamide], the IC50 at CYP3A4 [1] was found to be 23 nM; on CYP3A4 [3] it was 38 nM. Also, the Ki on CYP3A4 [2] (setting [4]) came to 70.1 nM.
`CC(C)(CN1CCOCC1)NC(=O)c1ccccc1S(=O)(=O)Nc1cccnc1` [Example 33, N-(1,1-dimethyl-2-morpholin-4-ylethyl)-2-[(pyridin-3-ylamino)sulfonyl]benzamide]: the figures for the IC50 at CYP3A4 [1] and on CYP3A4 [3] were 111 nM and 473 nM, respectively. Also, the Ki at CYP3A4 [2] (setting [4]) was greater than 1000 nM.
The corresponding values for `CC(C)(COCc1ccccc1)NC(=O)c1ccccc1S(=O)(=O)Nc1cccnc1` [Example 34, N-[2-(benzyloxy)-1,1-dimethylethyl]-2-[(pyridin-3-ylamino)sulfonyl]benzamide] are greater than 750 nM, greater than 750 nM and greater than 1000 nM.
The like results for `CN1CCN(C(=O)c2ccccc2S(=O)(=O)Nc2cccnc2)CC1` [Example 35, 2-[(4-methylpiperazin-1-yl)carbonyl]-N-pyridin-3-ylbenzenesulfonamide] were, in that order, greater than 750 nM, greater than 750 nM and greater than 1000 nM.
The corresponding values for `CCOC(=O)N1CCN(C(=O)c2ccccc2S(=O)(=O)Nc2cccnc2)CC1` [Example 36, ethyl 4-{2-[(pyridin-3-ylamino)sulfonyl]benzoyl} piperazine-1-carboxylate] are greater than 750 nM, greater than 750 nM and greater than 1000 nM.
As for `CN(C)CCNC(=O)c1ccccc1S(=O)(=O)Nc1cccnc1` [Example 37], the IC50 on CYP3A4 [1] and at CYP3A4 [3] was greater than 750 nM throughout. Further, the Ki on CYP3A4 [2] (setting [4]) is greater than 1000 nM.
As to `CCC(C)(C)NC(=O)c1ccccc1S(=O)(=O)Nc1cccnc1` [Example 38, N-(1,1-dimethylpropyl)-2-[(pyridin-3-ylamino)sulfonyl]benzamide], the IC50 on CYP3A4 [1] was 68 nM; at CYP3A4 [3], 84 nM. The Ki at CYP3A4 [2] (setting [4]) was determined as 644 nM.
